The results in this text go back to patent publication US20180353457A1, “ABIETANE DITERPENOID 7-ACETOXYROYLEANONES FOR USE IN CANCER TREATMENT” (University of South Carolina, priority 2017, published 2018).

Series [1] concerns A498 (renal cancer) cells. The experiment in a line: NCI-60 five dose screen, A498. The conditions noted are these: read-out: LC50; A498, Renal.
Series [2] concerns HOP-92 (non-small cell lung cancer) cells. The experiment in a line: NCI-60 five dose screen, HOP-92. The settings on record: read-out: LC50; HOP-92, Non-small Cell Lung Cancer.
The subject of another series is leukemia cell lines. The settings on record: read-out: LC50; each leukemia cell line; not reached at highest concentration tested.
Series [3] has as its system OVCAR-3 (ovarian cancer) cells. Nature of the series: NCI-60 five dose screen, OVCAR-3. The conditions noted are these: read-out: LC50; OVCAR-3, Ovarian.
Series [4] relates to SK-MEL-5 (melanoma) cells.
The conditions of series [5]: read-out: LC50; melanoma cell line SK-OV-3 (so in the source), most sensitive to cell death.
The subject of series [6] is NCI-60 panel of cancer cell lines. Nature of the series: NCI-60 one dose screen, whole panel. The series is classed as cell-based. The conditions noted are these: 10 μM, 48 hours. The method, then:
One dose and five dose cytotoxicity screening was performed by the NCI-60 screening program of the National Institutes of Health (NIH), which is known in the art and available from the NIH. The NCI-60 panel is a collection of cancer cell lines, from various diverse tumors, which was developed in the 1980s by the National Cancer Institute to aid screening efforts for cytotoxic or cytostatic compounds.
In these screens, 60 cell lines, were utilized to determine the cytotoxic effect of small molecules, natural products, and other drug candidates. […]
The five dose screen was performed by creating four 10-fold dilutions of the highest concentration of the diluted 7-acetoxyroyleanone made in the same manner as the one dose screen. […] The bound stain was then dissolved in 10 mM trizma base and the absorbance was read using an automated plate reader at 515 nm. […]

Turning to `CC(=O)O[C@@H]1C[C@H]2C(C)(C)CCC[C@]2(C)C2=C1C(=O)C(C(C)C)=C(O)C2=O` [7-acetoxyroyleanone], the CC50 was 5.19 µM in series [1]; 5.4 µM in series [2]; above 100 µM in the series with leukemia cell lines; 7.46 µM in series [3]; 4.34 µM in series [4]; 4.34 µM in series [5]. For the same molecule, in series [6], the “growth percent, average for all cell types screened” value is −18.5%. In addition, the “growth inhibition of each cell line compared to the control” value in series [6] (minimum over all cell lines) was “at least 72.88%”.
